Legend:
Type in all cases: cell-based
[1] = molecular target: EP2 subtype of the human PGE2 receptor (Homo sapiens, UniProt P43116); assay: cAMP antagonism test on the human EP2 receptor (HTRF cAMP detection); conditions: hEP2 receptor, read-out: Antagonism hEP2 IC50
Summary of the method: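 Read-out is a competitive HTRF for cAMP: lysate cAMP displaces cAMP-d2 from Eu cryptate-labelled antibody, and antagonism raises the 665/620 nm ratio. Compound (0.8 nM–16.5 μM) added to EP2 cells 20 min at RT before 60 min PGE2 challenge (3× stock 1.5 nM) with IBMX, followed by 20 min lysis.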

[2] = molecular target: EP4 subtype of the human PGE2 receptor (Homo sapiens, UniProt P35408); assay: cAMP antagonism test on the human EP4 receptor (HTRF cAMP detection); conditions: selectivity towards hEP4, IC50 measured by cAMP antagonism test
Summary of the method: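 Competitive HTRF cAMP read-out (cAMP-d2 vs Eu-cryptate anti-cAMP antibody, 665/620 nm ratio) on lysed human EP4 cells. Compound (0.8 nM–16.5 μM) applied 20 min at RT before 60 min PGE2 challenge (3× solution 0.3 nM, IBMX present); 20 min lysis precedes reading.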

[3] = molecular target: T1, human PGD receptor (Homo sapiens, UniProt Q13258); assay: cAMP antagonism test on the human prostaglandin D receptor (HTRF cAMP detection); conditions: selectivity towards hDP, IC50 measured by cAMP antagonism test
T1 sequence (Q13258 1-359): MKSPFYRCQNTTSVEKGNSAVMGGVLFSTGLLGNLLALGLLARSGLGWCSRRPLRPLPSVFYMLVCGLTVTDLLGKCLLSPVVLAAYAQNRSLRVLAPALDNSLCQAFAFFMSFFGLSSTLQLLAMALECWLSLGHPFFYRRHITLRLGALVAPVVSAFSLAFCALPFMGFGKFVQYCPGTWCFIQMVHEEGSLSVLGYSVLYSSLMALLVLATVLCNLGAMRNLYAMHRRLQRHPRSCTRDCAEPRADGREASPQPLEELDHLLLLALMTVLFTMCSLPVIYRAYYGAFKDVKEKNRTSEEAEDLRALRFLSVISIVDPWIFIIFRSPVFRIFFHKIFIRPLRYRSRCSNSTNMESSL
Summary of the method: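 HTRF competition read-out (665/620 nm ratio ×10000), where higher FRET means less cAMP, i.e. antagonism. Compounds (0.8 nM–16.5 μM) were preincubated 20 min at RT with cells and cAMP-d2, PGD2 (3× solution, 6 nM) in IBMX-containing PBS added for 30 min at RT, then cells lysed 20 min.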

EP2 subtype of the human PGE2 receptor, sequence (P43116 whole entry): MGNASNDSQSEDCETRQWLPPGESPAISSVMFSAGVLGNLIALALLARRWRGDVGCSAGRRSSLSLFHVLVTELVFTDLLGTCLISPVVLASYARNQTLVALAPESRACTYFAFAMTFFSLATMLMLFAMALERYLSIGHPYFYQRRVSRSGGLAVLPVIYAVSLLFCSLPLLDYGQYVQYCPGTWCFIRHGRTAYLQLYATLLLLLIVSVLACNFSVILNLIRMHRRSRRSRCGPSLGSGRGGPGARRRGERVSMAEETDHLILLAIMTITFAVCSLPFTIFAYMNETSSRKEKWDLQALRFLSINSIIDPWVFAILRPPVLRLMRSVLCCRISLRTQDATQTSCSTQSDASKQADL
EP4 subtype of the human PGE2 receptor, sequence (P35408 whole entry): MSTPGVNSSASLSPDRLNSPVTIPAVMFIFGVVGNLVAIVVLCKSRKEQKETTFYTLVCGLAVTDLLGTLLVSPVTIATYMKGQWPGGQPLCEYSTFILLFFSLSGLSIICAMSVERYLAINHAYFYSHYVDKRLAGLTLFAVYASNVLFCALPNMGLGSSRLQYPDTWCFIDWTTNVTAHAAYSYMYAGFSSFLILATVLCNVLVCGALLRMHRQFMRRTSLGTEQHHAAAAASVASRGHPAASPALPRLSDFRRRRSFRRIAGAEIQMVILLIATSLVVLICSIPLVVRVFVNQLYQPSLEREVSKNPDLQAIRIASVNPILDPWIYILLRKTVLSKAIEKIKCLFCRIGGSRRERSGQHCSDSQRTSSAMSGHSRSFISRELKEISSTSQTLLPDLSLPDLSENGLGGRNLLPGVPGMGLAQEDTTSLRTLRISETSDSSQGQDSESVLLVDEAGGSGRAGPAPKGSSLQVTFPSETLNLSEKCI

Row | SMILES | IC50 [1] | Selectivity hEP2/hEP4 [2] | Selectivity hEP2/hDP [3]
1 | Cc1cc2nn(CC3CCN(C(=O)c4ccc(-c5ccc(F)cc5)cc4)CC3)cc2cc1C(=O)NCCN1CCOCC1 [Example 83, 2-({l-[(4′-fluoro-biphenyl-4-yl)-carbonyl]piperidin-4-yl}methyl)-6-methyl-N-(2-morpholino-ethyl)-2H-indazol-5-carboxamide] | 32.6 nM | xxx (xxx > 100) | xxx (xxx > 100)
2 | Cc1c(C(=O)NCCOCC2CC2)ccc2nn(CC3CCN(C(=O)c4ccc(Cl)cc4)CC3)cc12 [Example 84, 2-{[1-(4-chlorobenzoyl)piperidin-4-yl]methyl}-N-[2-(cyclopropylmethoxy)ethyl]-4-methyl-2H-indazol-5-carboxamide] | 19.2 nM | xxx (xxx > 100) | xxx (xxx > 100)
3 | Cc1ccc(C(=O)N2CCC(Cn3cc4c(C)c(C(=O)NCCOCC5CC5)ccc4n3)CC2)cc1 [Example 85, N-[2-(cyclopropyl-methoxy)ethyl]-4-methyl-2-{[1-(4-methylbenzoyl)-piperidin-4-yl]-methyl}-2H-indazol-5-carboxamide] | 35.5 nM | xxx (xxx > 100) | xxx (xxx > 100)
4 | Cc1c(C(=O)NCCOCC2CC2)ccc2nn(CC3CCN(C(=O)c4ccc(Oc5ccc(F)cc5)cc4)CC3)cc12 [Example 86, N-[2-(cyclopropyl-methoxy)ethyl]-2-({1-[4-(4-fluorophenoxy)-benzoyl]piperidin-4-yl}methyl)-4-methyl-2H-indazol-5-carboxamide] | 15.4 nM | xxx (xxx > 100) | xxx (xxx > 100)
5 | Cc1c(C(=O)NCCOCC2CC2)ccc2nn(CC3CCN(C(=O)c4ccc(C(F)(F)F)cc4)CC3)cc12 [Example 87, N-[2-(cyclopropyl-methoxy)ethyl]-4-methyl-2-({l-[4-(tri-fluoromethyl)benzoyl]piperidin-4-yl}-methyl)-2H-indazol-5-carboxamide] | 24 nM | xxx (xxx > 100) | xxx (xxx > 100)
6 | Cc1c(C(=O)NCCOCC2CC2)ccc2nn(CC3CCN(C(=O)c4ccc(-c5ccc(F)cc5)cc4)CC3)cc12 [Example 88, N-[2-(cyclopropyl-methoxy)ethyl]-2-({1-[(4′-fluorobiphenyl-4-yl)carbonyl]piperidin-4-yl}methyl)-4-methyl-2H-indazol-5-carboxamide] | 16.2 nM | xxx (xxx > 100) | xxx (xxx > 100)
7 | Cc1c(C(=O)NCCOCC2CC2)ccc2nn(CC3CCN(C(=O)c4ccc(C5CC5)cc4)CC3)cc12 [Example 89, 2-{[1-(4-cyclopropyl-benzoyl)piperidin-4-yl]methyl}-N-[2-(cyclopropylmethoxy)ethyl]-4-methyl-2H-indazol-5-carboxamide] | 9.4 nM | xxx (xxx > 100) | xxx (xxx > 100)
8 | Cc1c(C(=O)NCCOCC(F)(F)F)ccc2nn(CC3CCN(C(=O)c4ccc(Cl)cc4)CC3)cc12 [Example 90, 2-{[1-(4-chlorobenzoyl)piperidin-4-yl]methyl}-4-methyl-N-[2-(2,2,2-trifluoro-ethoxy)ethyl]-2H-indazol-5-carboxamide] | 14.8 nM | xxx (xxx > 100) | xxx (xxx > 100)
9 | Cc1ccc(C(=O)N2CCC(Cn3cc4c(C)c(C(=O)NCCOCC(F)(F)F)ccc4n3)CC2)cc1 [Example 91, 4-methyl-2-{[1-(4-methylbenzoyl)-piperidin-4-yl]-methyl}-N-[2-(2,2,2-trifluoro-ethoxy)ethyl]-2H-indazol-5-carboxamide] | 20.3 nM | xxx (xxx > 100) | xxx (xxx > 100)
10 | Cc1c(C(=O)NCCOCC(F)(F)F)ccc2nn(CC3CCN(C(=O)c4ccc(Oc5ccc(F)cc5)cc4)CC3)cc12 [Example 92, 2-({1-[4-(4-fluoro-phenoxy)benzoyl]-piperidin-4-yl}-methyl)-4-methyl-N-[2-(2,2,2-tri-fluoroethoxy)ethyl]-2H-indazol-5-carboxamide] | 12.7 nM | xxx (xxx > 100) | xxx (xxx > 100)
11 | Cc1c(C(=O)NCCOCC(F)(F)F)ccc2nn(CC3CCN(C(=O)c4ccc(C(F)(F)F)cc4)CC3)cc12 [Example 93, 4-methyl-N-[2-(2,2,2-trifluoro-ethoxy)ethyl]-2-({1-[4-(trifluoro-methyl)benzoyl]-piperidin-4-yl}-methyl)-2H-indazol-5-carboxamide] | 11.5 nM | xxx (xxx > 100) | xxx (xxx > 100)
12 | Cc1c(C(=O)NCCOCC(F)(F)F)ccc2nn(CC3CCN(C(=O)c4ccc(-c5ccc(F)cc5)cc4)CC3)cc12 [Example 94, 2-({1-[(4′-fluoro-biphenyl-4-yl)-carbonyl]piperidin-4-yl}methyl)-4-methyl-N-[2-(2,2,2-trifluoroethoxy)-ethyl]-2H-indazol-5-carboxamide] | 12.8 nM | xxx (xxx > 100) | xxx (xxx > 100)
13 | Cc1c(C(=O)NCCOCC(F)(F)F)ccc2nn(CC3CCN(C(=O)c4ccc(C5CC5)cc4)CC3)cc12 [Example 95, 2-{[1-(4-cyclo-propylbenzoyl)-piperidin-4-yl]-methyl}-4-methyl-N-[2-(2,2,2-tri-fluoroethoxy)ethyl]-2H-indazol-5-carboxamide] | 6.18 nM | xxx (xxx > 100) | xxx (xxx > 100)
14 | Cc1c(C(=O)NCCOC(C)C)ccc2nn(CC3CCN(C(=O)c4ccc(Cl)cc4)CC3)cc12 [Example 96, 2-{[1-(4-chlorobenzoyl)piperidin-4-yl]methyl}-N-(2-isopropoxyethyl)-4-methyl-2H-indazol-5-carboxamide] | 9.42 nM | xxx (xxx > 100) | xxx (xxx > 100)
15 | Cc1ccc(C(=O)N2CCC(Cn3cc4c(C)c(C(=O)NCCOC(C)C)ccc4n3)CC2)cc1 [Example 97, N-(2-isopropoxy-ethyl)-4-methyl-2-{[1-(4-methyl-benzoyl)piperidin-4-yl]methyl}-2H-indazol-5-carboxamide] | 12.7 nM | xxx (xxx > 100) | xxx (xxx > 100)
16 | Cc1c(C(=O)NCCOC(C)C)ccc2nn(CC3CCN(C(=O)c4ccc(Oc5ccc(F)cc5)cc4)CC3)cc12 [Example 98, 2-({1-[4-(4-fluoro-phenoxy)benzoyl]-piperidin-4-yl}-methyl)-N-(2-isopropoxyethyl)-4-methyl-2H-indazol-5-carboxamide] | 7.07 nM | xxx (xxx > 100) | xxx (xxx > 100)
17 | Cc1c(C(=O)NCCOC(C)C)ccc2nn(CC3CCN(C(=O)c4ccc(C(F)(F)F)cc4)CC3)cc12 [Example 99, N-(2-isopropoxy-ethyl)-4-methyl-2-({1-[4-(trifluoro-methyl)benzoyl]-piperidin-4-yl}-methyl)-2H-indazol-5-carboxamide] | 10.4 nM | xxx (xxx > 100) | xxx (xxx > 100)
18 | Cc1c(C(=O)NCCOC(C)C)ccc2nn(CC3CCN(C(=O)c4ccc(-c5ccc(F)cc5)cc4)CC3)cc12 [Example 100, 2-({1-[(4′-fluoro-biphenyl-4-yl)-carbonyl]piperidin-4-yl}methyl)-N-(2-isopropoxyethyl)-4-methyl-2H-indazol-5-carboxamide] | 6.21 nM | xxx (xxx > 100) | xxx (xxx > 100)
19 | Cc1c(C(=O)NCCOC(C)C)ccc2nn(CC3CCN(C(=O)c4ccc(C5CC5)cc4)CC3)cc12 [Example 101, 2-{[1-(4-cyclopropyl-benzoyl)piperidin-4-yl]methyl}-N-(2-isopropoxyethyl)-4-methyl-2H-indazol-5-carboxamide] | 6.58 nM | xxx (xxx > 100) | xxx (xxx > 100)
20 | Cc1c(C(=O)NCCOC(F)(F)F)ccc2nn(CC3CCN(C(=O)c4ccc(Cl)cc4)CC3)cc12 [Example 107, 2-{[1-(4-chlorobenzoyl)piperidin-4-yl]methyl}-4-methyl-N-[2-(trifluoromethoxy)ethyl]-2H-indazol-5-carboxamide] | 11.4 nM | xxx (xxx > 100) | xxx (xxx > 100)
21 | Cc1c(C(=O)NCCOC(F)(F)F)ccc2nn(CC3CCN(C(=O)c4ccc(Oc5ccc(F)cc5)cc4)CC3)cc12 [Example 108, 2-({1-[4-(4-fluoro-phenoxy)benzoyl]-piperidin-4-yl}methyl)-4-methyl-N-[2-(tri-fluoromethoxy)ethyl]-2H-indazol-5-carboxamide] | 6.46 nM | xxx (xxx > 100) | xxx (xxx > 100)

Source: patent publication US9062041B2 (Bayer Intellectual Property GmbH, priority 2011, dated 2015)
